Molecular target: T1, hTGase 2 (Homo sapiens, UniProt P21980)
T1 construct: purchased Zedira (Darmstadt, Germany) T022, lot 0716a
T1 sequence (P21980 1-687): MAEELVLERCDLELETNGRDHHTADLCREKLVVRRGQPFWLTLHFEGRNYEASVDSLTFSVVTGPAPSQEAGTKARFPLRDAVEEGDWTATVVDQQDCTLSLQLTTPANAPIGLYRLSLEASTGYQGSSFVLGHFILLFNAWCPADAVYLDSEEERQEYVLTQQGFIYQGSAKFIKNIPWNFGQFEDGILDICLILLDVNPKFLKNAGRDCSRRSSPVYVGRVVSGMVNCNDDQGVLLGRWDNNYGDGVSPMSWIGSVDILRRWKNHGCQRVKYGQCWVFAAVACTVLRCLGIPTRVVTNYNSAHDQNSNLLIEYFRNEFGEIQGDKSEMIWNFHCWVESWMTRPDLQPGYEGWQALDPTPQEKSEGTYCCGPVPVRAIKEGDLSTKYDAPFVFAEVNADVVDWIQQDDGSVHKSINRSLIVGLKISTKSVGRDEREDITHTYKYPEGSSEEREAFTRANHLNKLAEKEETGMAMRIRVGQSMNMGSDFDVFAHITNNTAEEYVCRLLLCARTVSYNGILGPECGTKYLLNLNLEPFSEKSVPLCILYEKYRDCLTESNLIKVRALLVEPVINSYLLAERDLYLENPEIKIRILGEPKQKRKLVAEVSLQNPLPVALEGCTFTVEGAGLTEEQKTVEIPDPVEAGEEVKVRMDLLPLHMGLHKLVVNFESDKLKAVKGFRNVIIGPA
Test: switchSENSE dynamic mode: upward motion (relative inverse slope, friction) of hTGase 2-dsDNA lever
Conditions: GTPγS 20 nM or Ca^2+ 1 mM; non-directed and His-tag-directed labeling
Protocol: Prior to the measurement of the switching kinetics of the differently conjugated hTGase 2, a complementary ssDNA without the enzyme (500 nM) was hybridized to the single-stranded capture strands on the chip electrodes to obtain the reference kinetics of the dsDNA lever. In addition, to determine the impact of CaCl2 and DMSO on the movement of the bare dsDNA lever, and thus on reference kinetics, its switching behavior was investigated in TE40, TE40 + 1 mM CaCl2, TE40 + 1 mM CaCl2 + 1% DMSO or TE40 + 1 mM CaCl2 + 0.1% DMSO.
Then, the dehybridization of the reference lever occurred during a regeneration step followed by the hybridization with an ssDNA-hTGase 2 conjugate (500 nM). Thereafter, the switching kinetics was recorded. […]
The impact on the hydrodynamic drag of the hTGase 2-functionalized lever was investigated under identical conditions for the three irreversible inhibitors 1–3: At first, the switching kinetics of the dsDNA lever and the hTGase 2-dsDNA conjugates were recorded. Secondly, the switching kinetics of the hTGase 2-dsDNA conjugates during and after Ca^2+ exposure were recorded using TE40 + 1 mM CaCl2 or TE40, respectively. […] In this process, the hydrodynamic drag was analyzed during the exposure to 10 µM inhibitor (for 6 min) dissolved in TE40 + 1 mM CaCl2 + 0.1% DMSO and to TE40 afterward. […]

SMILES: Nc1nc2c(ncn2[C@@H]2O[C@H](COP(=O)(O)OP(=O)(O)OP(O)(O)=S)[C@@H](O)[C@H]2O)c(=O)[nH]1 [GTPγS]
- relative inverse slope of hTGase 2-dsDNA lever versus pure buffer without effector: significantly smaller

— PMC9865645, “The Impact of N^ε-Acryloyllysine Piperazides on the Conformational Dynamics of Transglutaminase 2” (International Journal of Molecular Sciences, 2023)
